Assay results from patent publication US8153389B2, “Methods for the identification of PI3K interacting molecules and for the purification of PI3K” (CellZone AG, priority 2006, dated 2012).

Legend:
[1] = target: T1, PI3K delta (Homo sapiens, UniProt O00329); test: Drug pulldown with immobilized phenylthiazole ligand 1 from MOLT-4 lysate, Western blot; type: binding; settings: 50 mg protein, FIG. 2B
T1 construct: immobilized phenylthiazole ligand 1 captures (pulls down) PI3K gamma and PI3K delta from the cell lysate; endogenous in cells; host or cells: MOLT-4 cells (human T cell line, ATCC CRL-1582), cell lysate
T1 sequence (O00329 whole entry): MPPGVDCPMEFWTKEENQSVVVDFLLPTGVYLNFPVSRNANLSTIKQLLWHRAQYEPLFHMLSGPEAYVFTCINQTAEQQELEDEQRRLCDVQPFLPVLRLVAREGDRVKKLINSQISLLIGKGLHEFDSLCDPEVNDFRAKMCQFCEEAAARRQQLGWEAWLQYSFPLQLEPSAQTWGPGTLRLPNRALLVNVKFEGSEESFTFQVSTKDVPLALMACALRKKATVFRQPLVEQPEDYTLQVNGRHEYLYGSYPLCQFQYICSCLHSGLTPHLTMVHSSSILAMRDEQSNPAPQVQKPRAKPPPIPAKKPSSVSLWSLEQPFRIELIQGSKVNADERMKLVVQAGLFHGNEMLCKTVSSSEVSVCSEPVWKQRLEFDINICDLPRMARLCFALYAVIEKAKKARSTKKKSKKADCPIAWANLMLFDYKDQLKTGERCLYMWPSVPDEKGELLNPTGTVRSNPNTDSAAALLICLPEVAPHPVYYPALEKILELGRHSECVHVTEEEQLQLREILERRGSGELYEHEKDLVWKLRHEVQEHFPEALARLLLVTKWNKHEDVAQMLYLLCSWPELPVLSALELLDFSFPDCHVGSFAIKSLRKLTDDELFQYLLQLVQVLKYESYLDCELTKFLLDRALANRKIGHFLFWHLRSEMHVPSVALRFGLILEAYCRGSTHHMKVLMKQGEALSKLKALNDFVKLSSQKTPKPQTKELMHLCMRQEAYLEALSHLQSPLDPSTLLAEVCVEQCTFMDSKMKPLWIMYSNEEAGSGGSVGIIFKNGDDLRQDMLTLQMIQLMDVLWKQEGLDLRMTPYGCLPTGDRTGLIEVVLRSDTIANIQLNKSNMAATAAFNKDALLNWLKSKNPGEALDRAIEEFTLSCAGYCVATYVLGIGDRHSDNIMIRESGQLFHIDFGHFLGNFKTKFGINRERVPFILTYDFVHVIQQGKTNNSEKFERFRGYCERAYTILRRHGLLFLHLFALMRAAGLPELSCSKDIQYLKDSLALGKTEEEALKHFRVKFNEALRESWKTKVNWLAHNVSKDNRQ
T1 sequence (P27986 whole entry partner): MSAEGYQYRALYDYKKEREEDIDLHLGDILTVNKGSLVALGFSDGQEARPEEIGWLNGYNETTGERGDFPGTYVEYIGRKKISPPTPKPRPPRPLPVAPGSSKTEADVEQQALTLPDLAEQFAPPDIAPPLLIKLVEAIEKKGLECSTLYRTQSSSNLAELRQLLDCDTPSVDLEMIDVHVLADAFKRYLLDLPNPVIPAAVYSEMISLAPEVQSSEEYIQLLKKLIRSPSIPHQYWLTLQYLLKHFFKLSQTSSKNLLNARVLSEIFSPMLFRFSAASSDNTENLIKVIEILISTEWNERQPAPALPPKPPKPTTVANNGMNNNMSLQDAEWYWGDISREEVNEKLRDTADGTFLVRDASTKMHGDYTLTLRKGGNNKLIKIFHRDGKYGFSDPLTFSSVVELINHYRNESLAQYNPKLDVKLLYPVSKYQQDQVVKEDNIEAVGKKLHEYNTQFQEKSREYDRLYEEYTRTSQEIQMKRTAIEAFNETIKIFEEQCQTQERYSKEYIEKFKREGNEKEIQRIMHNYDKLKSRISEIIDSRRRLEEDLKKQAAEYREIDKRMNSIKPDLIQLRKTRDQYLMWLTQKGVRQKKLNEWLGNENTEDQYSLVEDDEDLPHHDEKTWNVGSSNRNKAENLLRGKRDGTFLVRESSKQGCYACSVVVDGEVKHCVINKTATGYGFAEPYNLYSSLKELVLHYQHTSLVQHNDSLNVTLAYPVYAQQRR
Protocol: (§1) As biological material a cell lysate prepared from MOLT-4 cells was used. The drug pulldown experiment was performed as described in Example 2 with lysate samples containing 50 mg of protein. Captured proteins were eluted with DMSO containing buffer (lane 1), 100 μM of free phenylthiazole ligand 1 or SDS sample buffer (lane 3). The eluted samples were separated on SDS-polyacrylamide gels and transferred to membranes. The blots were first incubated with specific antibodies directed against PI3K gamma (FIG. 2A) and PI3K delta (FIG. 2B). Secondary detection antibodies labeled with fluorescent dyes for detection were used with the Odyssey infrared imaging system.
(§2) To this end a lysate of MOLT-4 cells was contacted with the affinity matrix described in example 1. […]
(§3) For Western blot analysis bound proteins were eluted from the affinity matrix and subsequently separated by SDS-Polyacrylamide gel electrophoresis. PI3K gamma and PI3K delta were detected with specific antibodies (FIG. 2).
(§4) MOLT-4 cells were homogenized in a Potter S homogenizer in lysis buffer: 50 mM Tris-HCl, 0.8% NP40, 5% glycerol, 150 mM NaCl, 1.5 mM MgCl2, 25 mM NaF, 1 mM sodium vanadate, 1 mM DTT, pH 7.5. […] The supernatant was transferred again to a fresh 50 ml falcon tube, the protein concentration was determined by a Bradford assay (BioRad) and samples containing 50 mg of protein per aliquot were prepared. […]

[2] = target: T2, PI3K gamma (Homo sapiens, UniProt P48736); test: as above; type: binding; settings: 50 mg protein, FIG. 2A
T2 construct: PI3K gamma protein was captured by immobilized phenylthiazole ligand 1 from MOLT-4 cell lysate; endogenous in cells; host or cells: MOLT-4 cells (human T cell line, ATCC CRL-1582), cell lysate
T2 sequence (P48736 whole entry): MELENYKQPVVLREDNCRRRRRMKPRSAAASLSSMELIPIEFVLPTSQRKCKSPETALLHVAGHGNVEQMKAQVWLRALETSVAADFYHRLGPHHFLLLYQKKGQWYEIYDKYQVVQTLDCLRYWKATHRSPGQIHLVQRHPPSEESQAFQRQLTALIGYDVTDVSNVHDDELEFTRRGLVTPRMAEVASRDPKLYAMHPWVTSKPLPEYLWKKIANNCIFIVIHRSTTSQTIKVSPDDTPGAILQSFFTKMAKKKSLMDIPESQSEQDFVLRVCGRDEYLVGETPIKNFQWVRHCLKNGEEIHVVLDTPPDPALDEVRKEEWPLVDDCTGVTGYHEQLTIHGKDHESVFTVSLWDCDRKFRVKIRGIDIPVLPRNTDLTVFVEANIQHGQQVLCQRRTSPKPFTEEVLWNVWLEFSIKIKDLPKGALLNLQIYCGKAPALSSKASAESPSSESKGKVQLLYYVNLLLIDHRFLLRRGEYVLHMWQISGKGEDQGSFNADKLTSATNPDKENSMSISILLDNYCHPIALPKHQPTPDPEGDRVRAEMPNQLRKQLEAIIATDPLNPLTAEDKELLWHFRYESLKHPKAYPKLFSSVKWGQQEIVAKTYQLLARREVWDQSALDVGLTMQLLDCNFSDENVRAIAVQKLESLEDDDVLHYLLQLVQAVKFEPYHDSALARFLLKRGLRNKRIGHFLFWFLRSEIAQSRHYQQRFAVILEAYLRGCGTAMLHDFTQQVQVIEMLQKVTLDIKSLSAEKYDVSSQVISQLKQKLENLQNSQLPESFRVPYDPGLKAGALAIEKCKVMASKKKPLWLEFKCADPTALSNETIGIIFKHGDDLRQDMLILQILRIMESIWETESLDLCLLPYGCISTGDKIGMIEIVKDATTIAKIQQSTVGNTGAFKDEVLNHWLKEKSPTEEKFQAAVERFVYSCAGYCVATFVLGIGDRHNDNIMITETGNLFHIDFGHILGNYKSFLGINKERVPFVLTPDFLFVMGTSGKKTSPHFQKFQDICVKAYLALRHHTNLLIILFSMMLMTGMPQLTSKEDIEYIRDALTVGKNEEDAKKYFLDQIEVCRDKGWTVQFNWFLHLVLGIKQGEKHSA
Protocol: as §1, §2, §3, §4

With `Cc1nc(NC(=O)CCOCCOCCOCCOCCN)sc1-c1ccc(Cl)c(S(C)(=O)=O)c1.Cl` [phenylthiazole ligand 1, 3-(2-{2-[2-(2-amino-ethoxy)-ethoxy]-ethoxy}-ethoxy)-N-[5-(4-chloro-3-methanesulfonyl-phenyl)-4-methyl-thiazol-2yl]-propionamide hydrochloride] the “Capture (pull down) of PI3K delta from the cell lysate” value [1] was “captures” and the “Capture (pull down) of PI3K gamma from the cell lysate” value [2] was “captures”.
